Earlier results on 1 molecule are cited in patent US12090144B2, “Photocurable hydrogel loaded with VH298-modified exosome and method of preparation and use thereof” (Chinese PLA General Hospital, priority 2022, dated 2024).

The conditions of this series: background statement.

In the case of `Cc1ncsc1-c1ccc(CNC(=O)[C@@H]2C[C@@H](O)CN2C(=O)[C@@H](NC(=O)C2(C#N)CC2)C(C)(C)C)cc1` [VH298], the water solubility result is listed as “poor water solubility”.
